According to ChEMBL document CHEMBL6177963, “Development of acylhydrazone linked thiazoles as non-covalent dual inhibitors of SARS-CoV-2 proteases” (Eur J Med Chem, 2025):
The source made the active and inactive calls. No cut-off for these calls is given here.

How the values were obtained:
[1] = system: SARS-CoV-2; assay: Antiviral activity against SARS-CoV-2 infected in African green monkey Vero E6 cells assessed as viral reduction by measuring viral RNA measured up to 72 hrs by RT-PCR analysis; assay type: functional, organism-based; details: Severe acute respiratory syndrome coronavirus 2, SARS-CoV-2, Vero C1008, 72 h
[2] = biological target: Replicase polyprotein 1ab (Severe acute respiratory syndrome coronavirus 2, UniProt P0DTD1); assay: Inhibition of recombinant SARS-CoV-2 PLpro using TLKGGI-AMC as substrate assessed as assessed as inhibition constant ny measuring fluorescence signal measured after 15 mins
[3] = biological target: Replicase polyprotein 1ab (Severe acute respiratory syndrome coronavirus 2) (UniProt P0DTD1); assay: Covalent binding affinity to SARS-CoV-2 PLpro assessed as change in molecular weight by Mass spectrometry
[4] = biological target: Replicase polyprotein 1ab (Severe acute respiratory syndrome coronavirus 2) (UniProt P0DTD1); assay: Non-covalent binding affinity to SARS-CoV-2 PLpro assessed change in molecular weight by Mass spectrometry
[5] = system: Severe acute respiratory syndrome coronavirus 2; assay: Reversible inhibition of SARS-CoV-2 MPro assessed as enzyme activity by dialysis; set-up: scale not given: the % may be the effect or the level left
[6] = biological target: Replicase polyprotein 1ab (Severe acute respiratory syndrome coronavirus 2) (UniProt P0DTD1); assay: Reversible inhibition of SARS-CoV-2 PLpro assessed as enzyme activity by dialysis; set-up: scale not given: the % may be the effect or the level left
[7] = system: Severe acute respiratory syndrome coronavirus 2; assay: Non-covalent inhibition of SARS-CoV-2 MPro by Lineweaver-Burk Plot analysis
[8] = biological target: Replicase polyprotein 1ab (Severe acute respiratory syndrome coronavirus 2) (UniProt P0DTD1); assay: Non-covalent inhibition of SARS-CoV-2 PLpro by Lineweaver-Burk Plot analysis
[9] = system: Severe acute respiratory syndrome coronavirus 2; assay: Binding affinity to SARS-CoV-2 MPro assessed as thermal stability by measuring melting temperature of half of the proteins unfolded by differential scanning fluorimetry (DSF) (reference value: 52.46 degC)
[10] = biological target: Replicase polyprotein 1ab (Severe acute respiratory syndrome coronavirus 2) (UniProt P0DTD1); assay: Binding affinity to SARS-CoV-2 PLpro assessed as thermal stability by measuring melting temperature of half of the proteins unfolded by differential scanning fluorimetry (DSF) (reference value: 45.79 degC)
[11] = biological target: Chymotrypsin (Homo sapiens) (UniProt Q99895+P17538+P40313+Q6GPI1); assay: Inhibition of Chymotrypsin (unknown origin) assessed as BSA digestion; assay type: protein assay
[12] = Cytotoxicity against human HEK293 cells assessed as cell viability measured after 48 hrs by MTT assay; assay type: toxicity, cell-based
[13] = Cytotoxicity against African green monkey Vero E6 cells assessed as cell viability at 100 uM measured after 48 hrs by MTT assay relative to control; assay type: toxicity, cell-based, Vero C1008; details: chlorocebus sabaeus, read-out: Activity
[14] = system: SARS-CoV-2; assay: Antiviral activity against SARS-CoV-2 infected in African green monkey Vero E6 cells assessed as viral load reduction at 4 uM by measuring viral RNA measured up to 72 hrs by RT-PCR analysis relative to control; assay type: functional, Severe acute respiratory syndrome coronavirus 2, Vero C1008; set-up: scale not given: the % may be the effect or the level left
[15] = Acute toxicity in rat assessed as change in body weight at 175 to 2000 mg/kg, po measured for 14 days; assay type: organism-based; details: in vivo, 336 h, dose 175-2000 mg/kg, time 14 day
[16] = Acute toxicity in rat assessed as morphological changes in liver in portal, periportal, and centrilobular regions at 175 to 2000 mg/kg, po measured for 14 days by Hand E staining based analysis; assay type: organism-based; details: in vivo, 336 h, dose 175-2000 mg/kg, time 14 day
[17] = Acute toxicity in rat assessed as toxicity at 175 to 2000 mg/kg, po measured for 14 days; assay type: organism-based; details: in vivo, dose 175-2000 mg/kg, time 14 day
[18] = biological target: Replicase polyprotein 1ab (Severe acute respiratory syndrome coronavirus 2) (UniProt P0DTD1); assay: Inhibition of recombinant SARS-CoV-2 PLpro using TLKGGI-AMC as substrate assessed as assessed as inhibition constant ny measuring fluorescence signal at 10 uM measured after 15 mins relative to control
[19] = system: Human coronavirus 229E; assay: Antiviral activity against HCoV-229E infected in human Huh7.5 Fluc cells; assay type: functional, organism-based
[20] = system: SARS-CoV-2; assay: Anti-viral activity against SARS-CoV-2 BavPat1 infected in Vero E6 cells assessed as inhibition of viral RNA replication; assay type: functional, organism-based; details: Severe acute respiratory syndrome coronavirus 2, BavPat1, Vero C1008
[21] = system: SARS-CoV-2; assay: Antiviral activity against SARS-CoV-2 infected in African green monkey Vero E6 cells assessed as viral load reduction at 0.125 uM by measuring viral RNA measured up to 72 hrs by RT-PCR analysis relative to control; assay type: functional

CCOC(=O)c1sc(NNC(=O)c2ccc([N+](=O)[O-])cc2)nc1C
EC50 [1]: 97 nM | Ki ([2]; read-out: Ki): 450 nM | Activity [3]: inactive | Activity [4]: Active | Activity [5]: > 90% | Activity [6]: > 90% | Activity [7]: Active | Activity [8]: Active | Tm [9]: 51 °C | Tm [10]: 41.5 °C | inhibition [11]: inactive | IC50 at 48 h [12]: 25900 nM | viability at 48 h, 100 µM [13]: 89.2% | Activity [14]: >80% | Activity [15]: Non-toxic | Activity [16]: Non-toxic | LD50 at 336 h [17]: > 2000 mg/kg

Cc1ccc(C(=O)NNc2nc(-c3ccc(Cl)cc3)cs2)cc1
EC50 [1]: 68 nM | Ki ([2]; read-out: Ki): 240 nM | Activity [8]: Active | Tm [9]: 51.8 °C | Tm [10]: 45.8 °C | inhibition [11]: inactive | IC50 at 48 h [12]: 41100 nM | viability at 48 h, 100 µM [13]: 91.5% | Activity [14]: >70%

CCOC(=O)c1sc(NNC(=O)c2cccc(Cl)c2)nc1C
Ki [2]: Not_active | inhibition [18]: < 50%

Cc1ccc(-c2csc(NNC(=O)c3ccc(Cl)cc3)n2)cc1
Ki [2]: Not_active | inhibition [18]: < 50%

O=C(NNc1nc(-c2ccc(Cl)cc2)cs1)c1ccc(Br)cc1
Ki [2]: Not_active | inhibition [18]: < 50%

O=C(NNc1nc(-c2ccc(Br)cc2)cs1)c1ccccc1
Ki [2]: Not_active | inhibition [18]: < 50%

Clc1nc2ccccc2cc1/C=N/Nc1nc(-c2ccccc2)cs1
Ki [2]: Not_active | inhibition [18]: < 50%

CCOC(=O)c1sc(NNC(=O)c2ccc(Br)cc2)nc1C
EC50 [1]: 116 nM | Ki ([2]; read-out: Ki): 500 nM | Activity [7]: Active | Activity [8]: Active | Tm [9]: 49.7 °C | Tm [10]: 41.5 °C | inhibition [11]: inactive | IC50 at 48 h [12]: 219000 nM | viability at 48 h, 100 µM [13]: 86.9% | Activity [14]: >80%

C=C1NC(=O)[C@]2(C)CSC(=N2)c2csc(n2)[C@]2(C)CSC(=N2)C([C@@H](C)CC)NC(=O)[C@@H](C)NC(=O)/C(=C\C(C)C)COC(=O)c2csc(n2)[C@H](C(C)C)N(C)C(=O)[C@H](COC)NC1=O (stereo not given in full)
IC50 [19]: 2390 nM

O=C(O)c1ccccc1/C=N/Nc1ncc(-c2ccccc2Cl)s1
EC50 [20]: 1590 nM

CCOC(=O)c1sc(N/N=C/c2cc3ccccc3nc2Cl)nc1C
Ki [2]: Not_active

CCOC(=O)c1sc(NNC(=O)/C=C/c2ccccc2)nc1C
EC50 [1]: 848 nM | Ki ([2]; read-out: Ki): 200 nM | Activity [3]: inactive | Activity [4]: Active | Activity [5]: > 90% | Activity [6]: > 90% | Activity [7]: Active | Activity [8]: Active | Tm [9]: 49.9 °C | Tm [10]: 41.5 °C | inhibition [11]: inactive | IC50 at 48 h [12]: 180000 nM | viability at 48 h, 100 µM [13]: 87.5% | Activity [14]: 56% | Activity ([21]; Severe acute respiratory syndrome coronavirus 2, Vero C1008): inactive | Activity [15]: Non-toxic | Activity [16]: Non-toxic | LD50 at 336 h [17]: > 2000 mg/kg

Cc1ccc(-c2csc(NNC(=O)c3ccc(Br)cc3)n2)cc1
Ki [2]: Not_active | inhibition [18]: < 50%

Cc1ccc(C(=O)NNc2nc(-c3ccc(C)cc3)cs2)cc1
Ki [2]: Not_active | inhibition [18]: < 50%

CCOC(=O)c1sc(NNC(=O)c2cccs2)nc1C
EC50 [1]: 118 nM | Ki ([2]; read-out: Ki): 230 nM | Activity [7]: Active | Activity [8]: Active | Tm [9]: 49.8 °C | Tm [10]: 41.1 °C | inhibition [11]: inactive | IC50 at 48 h [12]: 45800 nM | viability at 48 h, 100 µM [13]: 87.9% | Activity [14]: >70%

CN(/N=C/c1ccccc1C(=O)O)c1ncc(-c2ccccc2Cl)s1
EC50 [20]: 14 nM

Cc1ccc(C(=O)NNc2nc(-c3ccc(Br)cc3)cs2)cc1
Ki [2]: Not_active | inhibition [18]: < 50%

CCOC(=O)c1sc(NNC(=O)c2ccc(Cl)cc2)nc1C
EC50 [1]: 72 nM | Ki [2]: Not_active | Activity [8]: Active | Tm [9]: 52.1 °C | Tm [10]: 44.7 °C | inhibition [11]: inactive | IC50 at 48 h [12]: 45500 nM | viability at 48 h, 100 µM [13]: 92.5% | Activity [14]: >80% | Activity [21]: >70%

O=C(NNc1ncc(-c2ccc(Cl)cc2)s1)c1cccc(Cl)c1
Ki ([2]; read-out: Ki): 4230 nM

COC(=O)c1sc(NNC(=O)c2ccc([N+](=O)[O-])cc2)nc1C
Ki [2]: Not_active | inhibition [18]: < 50%

O=C(NNc1nc(-c2ccc(Br)cc2)cs1)c1ccc(Cl)cc1
Ki ([2]; read-out: Ki): 1720 nM | inhibition [11]: inactive | viability at 48 h, 100 µM [13]: 86.7%
